Data taken from US5492929A, “Condensed heterocyclic compounds useful for inhibiting acyl-CoA” (Takeda Chemical Industries, Ltd., priority 1992, dated 1996).

How the values were obtained:
[1] = target: T1, Acyl-CoA:cholesterol acyltransferase (ACAT) (Rattus norvegicus, UniProt Q7TQM4); experiment: ACAT inhibitory action: labeled cholesterol ester formation from [1-14C]oleoyl-CoA and endogenous cholesterol, small-intestinal mucosal microsomal enzyme; type: biochemical, rat (Sprague-Dawley); settings: 10^-6 M; read-out: ACAT inhibitory rate (%)
T1 construct: prepared from the microsomal fraction of mucosal cells from the small intestines of rats; from tissue; host or cells: microsomal fraction of small-intestinal mucosal cells, fasted 6-week-old male Sprague-Dawley rats
T1 sequence (Q7TQM4 1-524): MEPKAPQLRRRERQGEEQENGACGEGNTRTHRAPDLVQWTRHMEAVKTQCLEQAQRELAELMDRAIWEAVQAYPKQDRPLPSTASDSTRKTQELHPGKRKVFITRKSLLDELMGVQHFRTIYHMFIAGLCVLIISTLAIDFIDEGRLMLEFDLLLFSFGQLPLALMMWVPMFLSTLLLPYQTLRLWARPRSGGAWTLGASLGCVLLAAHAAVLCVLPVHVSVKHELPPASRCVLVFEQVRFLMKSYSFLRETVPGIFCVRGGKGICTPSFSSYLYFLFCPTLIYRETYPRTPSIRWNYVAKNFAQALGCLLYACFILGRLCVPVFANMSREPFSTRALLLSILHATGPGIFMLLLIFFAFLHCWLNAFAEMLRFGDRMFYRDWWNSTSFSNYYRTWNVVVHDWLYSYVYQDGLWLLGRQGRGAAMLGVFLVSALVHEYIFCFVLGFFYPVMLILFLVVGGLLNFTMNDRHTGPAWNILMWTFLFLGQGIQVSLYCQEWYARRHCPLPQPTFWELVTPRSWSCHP
Method: In accordance with the method disclosed by Heider et al. on Journal of Lipid Research, 24, p.1127 (1983), an enzyme sample ACAT was prepared from the microsomal fraction of mucosal cells from the small intestines of rats (6-week old male Sprague-Dawleys) fasted for 20 hours.
The ACAT activity was determined by, in accordance with the method disclosed by Helgerud et al. on Journal of Lipid Research 22, p.271 (1981), measuring the amount of labeled cholesterol ester from [1-^14 C]oleoyl-CoA and endogenous cholesterol.
(1) In Table 2, the labeled cholesterol ester formation inhibitory rate (%) determined when supplemented with 10^-6 M of a test compound (a representative one of the compounds obtained in the following Examples 1 to 24) is shown as the index of ACAT inhibitory activity.

[2] = target: T1, Acyl-CoA:cholesterol acyltransferase (ACAT); experiment: as above; type: biochemical, rat (Sprague-Dawley); settings: 10^-8 M; read-out: ACAT inhibitory rate (%) (in parentheses)
[3] = test system: hypercholesterolemic ICR mice; experiment: Hypocholesterolemic (cholesterol-lowering) activity in mice fed a high cholesterol-cholic acid diet; type: in vivo, mouse (ICR); settings: serum, vs control
Method: Groups of 6 ICR mice (2 subgroups of 3 mice) were made hypercholesterolemic by being fed a high cholesterol-cholic acid diet for 7 days and administered with test compounds orally on the last two days. One-half of the total dose was given on day 6 followed by the other half on day 7. After fasting overnight (16 hours after the last dose), the animals were sacrificed and sera were collected together for the each subgroup for measuring the levels of cholesterol and heparin precipitating lipoproteins (HPL). Both cholesterol and HPL levels were measured with autoanalyzer by the enzymatic CHOD-PAP method for the former and by the turbidimetric method of Shurr et. al. [in C. E. Dau ed. Atherosclerosis Drug Discovery, Plenum Publishing, New York, pp.215-229 & 231-249, 1976.] for the latter.

[4] = 1 mg/kg po (total dose, halves on day 6 and 7)
[5] = 10 mg/kg po (total dose, halves on day 6 and 7)
[6] = 30 mg/kg po (total dose, halves on day 6 and 7)

Question: With `CCOc1cccc(OCC)c1NC(=O)Nc1oc2ccc(Cl)cc2c1-c1ccccc1C` [Example 20, [5-Chloro-3-(2-methylphenyl)-2-benzofuryl]-N'-(2,6-diethoxyphenyl)urea] as the compound, how does the inhibition at 1 µM [1] read?
Answer: The inhibition at 1 µM was 99.4%.

Question: And the inhibition at 0.01 µM [2]?
Answer: The inhibition at 0.01 µM was 39.9%.

Question: Which results are given for `Cc1ccccc1-c1c(NC(=O)Nc2c(C(C)C)cccc2C(C)C)oc2ccc(Cl)cc12` [Example 11, N-[2,6-Bis(1-methylethyl)phenyl]-N'-[5-chloro-3-(2-methylphenyl)-2-benzofuryl]urea]?
Answer: inhibition at 1 µM [1]: 99.1%; Reduction % HPL (heparin precipitating lipoproteins) [3, 4]: 27%; Reduction % cholesterol [3, 4]: 28%; Reduction % HPL (heparin precipitating lipoproteins) [3, 5]: 38%; Reduction % cholesterol [3, 5]: 31%; inhibition at 0.01 µM [2]: 92.2%

Question: Which inhibition at 1 µM [1] does the source give for `COc1cccc(OC)c1NC(=O)Nc1oc2ccc(Cl)cc2c1-c1ccccc1C` [Example 19, N-[5-Chloro-3-(2-methylphenyl)-2-benzofuryl]-N'-(2,6-dimethoxyphenyl)urea] here?
Answer: The inhibition at 1 µM was 99%.

Question: And the inhibition at 0.01 µM [2]?
Answer: Its inhibition at 0.01 µM is 28.8%.

Question: How did the inhibition at 1 µM [1] turn out when `Cc1ccccc1-c1c(CC(=O)Nc2c(C(C)C)cccc2C(C)C)n(C)c2ccc(Cl)cc12` [Example 7, N-[2,6-Bis(1-methylethyl)phenyl]-5-chloro-1-methyl-3-(2-methylphenyl)-2-indoleacetamide] was run?
Answer: Its inhibition at 1 µM is 92.3%.

Question: `COc1cccc(OC)c1NC(=O)Cc1oc2ccc(Cl)cc2c1-c1ccccc1C` [Example 2, 5-Chloro-N-(2,6-dimethoxyphenyl)-3-(2-methylphenyl)-2-benzofuranacetamide] was tested. Which inhibition at 1 µM [1] did it give?
Answer: Its inhibition at 1 µM is 98.8%.

Question: `CCOc1cccc(OCC)c1NC(=O)Cc1oc2ccc(Cl)cc2c1-c1ccccc1C` [Example 16, 5-Chloro-N-(2,6-diethoxyphenyl)-3-(2-methylphenyl)-2-benzofuranacetamide] was tested. Which inhibition at 1 µM [1] did it give?
Answer: The inhibition at 1 µM was 98.1%.

Question: And the inhibition at 0.01 µM [2]?
Answer: The inhibition at 0.01 µM was 50.3%.

Question: With `COc1cccc(OC)c1NC(=O)Cc1oc2ccc(Cl)cc2c1-c1ccccc1` [Example 5, 5-Chloro-N-(2,6-dimethoxyphenyl)-3-phenyl-2-benzofuran acetamide] as the compound, how does the inhibition at 1 µM [1] read?
Answer: The inhibition at 1 µM was 93.2%.

Question: Which inhibition at 1 µM [1] does the source give for `CC(C)c1cccc(C(C)C)c1NC(=O)Cc1oc2ccc(Cl)cc2c1-c1ccccc1` [Example 4, N-[2,6-Bis(1-methylethyl)phenyl]-5-chloro-3-phenyl-2-benzofuranacetamide] here?
Answer: The inhibition at 1 µM was 99%.

Question: Which inhibition at 1 µM [1] does the source give for `Cc1ccccc1-c1c(CC(=O)Nc2c(F)cc(F)cc2F)oc2ccc(Cl)cc12` [Example 17, 5-Chloro-3-(2-methylphenyl)-N-(2,4,6-trifluorophenyl)-2-benzofuranacetamide] here?
Answer: Its inhibition at 1 µM is 92.9%.

Question: For `Cc1ccccc1-c1c(NC(=O)Nc2c(F)cc(F)cc2F)oc2ccc(Cl)cc12` [Example 18, N-[5-Chloro-3-(2-methylphenyl)-2-benzofuryl]-N'-(2,4,6-trifluorophenyl)urea], which inhibition at 1 µM [1] is on record?
Answer: Its inhibition at 1 µM is 90.1%.

Question: How did the inhibition at 1 µM [1] turn out when `Cc1cc(C)c(NC(=O)Cc2oc3ccc(Cl)cc3c2-c2ccccc2C)c(C)c1` [Example 3, 5-Chloro-3-(2-methylphenyl)-N-(2,4,6-trimethylphenyl)-2-benzofuranacetamide] was run?
Answer: Its inhibition at 1 µM is 90.8%.

Question: For `COc1cccc(OC)c1NC(=O)Cc1c(-c2ccccc2C)c2cc(Cl)ccc2n1C` [Example 8, 5-Chloro-N-(2,6-dimethoxyphenyl)-1-methyl-3-(2-methylphenyl)-2-indoleacetamide], which inhibition at 1 µM [1] is on record?
Answer: Its inhibition at 1 µM is 91.2%.

Question: With `Cc1ccccc1-c1c(CC(=O)Nc2c(C(C)C)cccc2C(C)C)oc2ccc(Cl)cc12` [Example 1, N-[2,6-Bis(1-methylethyl)phenyl]-5-chloro-3-(2-methylphenyl)-2-benzofuranacetamide] as the compound, how does the inhibition at 1 µM [1] read?
Answer: Its inhibition at 1 µM is 99.2%.

Question: And the “Reduction % HPL (heparin precipitating lipoproteins)” value [3, 6]?
Answer: The value was 27%.

Question: What about the Reduction % cholesterol [3, 6] of the same compound?
Answer: Its Reduction % cholesterol is 32%.

Question: And the inhibition at 0.01 µM [2]?
Answer: Its inhibition at 0.01 µM is 93.7%.
